This is an account of results in ChEMBL document CHEMBL1201862, “PubChem BioAssay data set” (2004).

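Values below derive from 48-hour exposures of cells grown in 96-well plates, with endpoints linearly interpolated between the two concentrations bracketing the appropriate inhibition level. Here, GI50 denotes the concentration required for 50% inhibition of growth.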 The source made the active and inactive calls. Rule as the data show it: active = GI50 up to about 1.1 µM and inactive = higher. Square brackets hold non-standard residues; d marks the D form. Peptide text beside a SMILES is read from it. * marks the point of attachment. AllylGly = C=CC[CH](N)C(=O)O; Boc = CC(C)(C)OC(=O)*; OtBu = CC(C)(C)O* A value given as a limit tells only on which side of the number the result lay.

Common to all, as to test: growth of human tumour cells (NCI), 48 h
The subject of experiment [1] is A549.
Experiment [2] relates to BT-549.
The subject of experiment [3] is CCRF-CEM.
Experiment [4] relates to DU-145.
In experiment [5] the test system is HCT-116.
Experiment [6] concerns HOP-92.
Experiment [7] has as its system KM12.
The test system of experiment [8] is MDA-MB-435.
The subject of experiment [9] is NCI-H226.
Experiment [10] deals with NCI-H460.
Experiment [11] concerns NCI-H522.
Experiment [12] deals with OVCAR-3.
Experiment [13] relates to OVCAR-4.
For experiment [14], the system named is OVCAR-8.
Experiment [15] relates to SF-268.
Experiment [16] concerns SF-295.
The subject of experiment [17] is SK-MEL-2.
Experiment [18] concerns SK-OV-3.
For experiment [19], the system named is SR.
Experiment [20] deals with UO-31.

For the compound `C=CCC(NC(=O)C(CC(=O)OC(C)(C)C)NC(=O)OC(C)(C)C)C(=O)OC` (stereo not given) (Boc-Asp(OtBu)-[AllylGly]-OMe; configuration not given here), the GI50 in [1] was > 100 µM (inactive); in experiment [2] it was > 100 µM (inactive); in experiment [3], 45.8 µM (inactive); in experiment [4] it was > 100 µM (inactive); in [5], 71.1 µM (inactive); in experiment [6], > 78.2 µM (inactive). For the same compound, the GI50 in experiment [7] is > 55.2 µM (inactive); in experiment [8], > 53.2 µM (inactive); in experiment [9] it was > 100 µM (inactive); in experiment [10], > 100 µM (inactive); in experiment [11] it was > 100 µM (inactive); in [12], 24.7 µM (inactive). Also, the GI50 in experiment [13] is > 100 µM (inactive); in [14], 16 µM (inactive); in experiment [15], 51.2 µM (inactive); in experiment [16] it was > 100 µM (inactive); in experiment [17] it was 73.3 µM (inactive); in experiment [18], > 100 µM (inactive). The GI50 in experiment [19] was 37.9 µM (inactive); in [20], > 100 µM (inactive).
Regarding `C=C(CN(C)C)C(=O)c1ccc(Oc2ccccc2)cc1`, the GI50 in experiment [1] was 19.5 µM (inactive); in experiment [2], 6.18 µM (inactive); in experiment [3], 0.272 µM (active); in experiment [4], 14.5 µM (inactive); in experiment [5], 2.16 µM (inactive); in experiment [6] it was 2.18 µM (inactive). In addition, the GI50 was 12.8 µM (inactive) in experiment [7]; 3.85 µM (inactive) in experiment [8]; 13.6 µM (inactive) in [9]; 27.3 µM (inactive) in experiment [10]; 1.55 µM (inactive) in experiment [11]; 4.86 µM (inactive) in experiment [12]. In addition, the GI50 in experiment [13] was 6.19 µM (inactive); in experiment [14], 3.28 µM (inactive); in experiment [15], 14 µM (inactive); in [16], 16.7 µM (inactive); in [17], 9.2 µM (inactive); in experiment [18], 21.3 µM (inactive). Also, the GI50 in [19] was 0.692 µM (active); in experiment [20] it was 3.53 µM (inactive).
As for `COc1ccc(CC2c3cc(Oc4cc(CC5c6cc(OC)c(OC)cc6CCN5C)ccc4O)c(OC)cc3CCN2C)cc1` (stereo not given), the GI50 in [1] was 6.73 µM (inactive); in experiment [2], 6.64 µM (inactive); in [3], 0.519 µM (active); in [4], 1.3 µM (inactive); in experiment [5], 2.22 µM (inactive); in experiment [6] it was 7.41 µM (inactive). The GI50 in experiment [7] was 1.77 µM (inactive); in experiment [8], 4.14 µM (inactive); in [9], 10.2 µM (inactive); in experiment [10], 6.98 µM (inactive); in experiment [11] it was 6.81 µM (inactive); in [12], 8.05 µM (inactive). Further, the GI50 in experiment [13] is 2.42 µM (inactive); in experiment [14], 5.96 µM (inactive); in experiment [15], 9.14 µM (inactive); in experiment [16] it was 8.2 µM (inactive); in experiment [17], 8.65 µM (inactive); in [18], 9.29 µM (inactive). The GI50 in experiment [19] is 1.43 µM (inactive); in experiment [20] it was 5.25 µM (inactive).
For the compound `O=C(c1ccc(Cl)c(Cl)c1)N(C(=O)N1CCN(c2ccccc2)CC1)S(=O)(=O)c1ccccc1`, the GI50 is > 100 µM (inactive) in experiment [1]; 40.6 µM (inactive) in experiment [2]; 19 µM (inactive) in experiment [3]; > 100 µM (inactive) in experiment [4]; 29.8 µM (inactive) in experiment [5]; 20.9 µM (inactive) in [6]. In addition, the GI50 in experiment [7] is > 100 µM (inactive); in [8] it was 46.7 µM (inactive); in experiment [9], 24.2 µM (inactive); in experiment [10], 68.7 µM (inactive); in experiment [11] it was 19 µM (inactive); in experiment [12] it was 29.6 µM (inactive). Besides, the GI50 is 24.2 µM (inactive) in experiment [13]; 26.9 µM (inactive) in experiment [14]; 38.2 µM (inactive) in experiment [15]; 49.4 µM (inactive) in experiment [16]; 23.2 µM (inactive) in experiment [17]; 27 µM (inactive) in [18]. Further, the GI50 in [19] was 20.7 µM (inactive); in experiment [20] it was 25.1 µM (inactive).
As for `CC12CC3(O)OC(O1)C1(COC(=O)c4ccccc4)C3CC21OC1OC(CO)C(O)C(O)C1O` (stereo not given), the GI50 in [1], in [2], in experiment [3], in experiment [4], in [5] and in experiment [6] was > 100 µM (inactive) in each case. In addition, the GI50 in experiment [7], in experiment [8], in experiment [9], in [10], in [11] and in experiment [12] was > 100 µM (inactive) each time. Further, the GI50 in experiment [13], in [14], in experiment [15], in experiment [16], in [17] and in experiment [18] was > 100 µM (inactive) each time. In addition, the GI50 in experiment [19] and in experiment [20] was > 100 µM (inactive) throughout.
As for `Cc1cnc2[nH]c(-c3cccc(Cl)c3)cc(=O)c2c1`, the GI50 was 0.0676 µM (active) in [1]; 2.54 µM (inactive) in [2]; 0.0425 µM (active) in experiment [3]; 0.154 µM (active) in experiment [4]; 0.0361 µM (active) in experiment [5]; > 100 µM (inactive) in experiment [6]. Besides, the GI50 in experiment [7] was 0.102 µM (active); in experiment [8] it was < 0.01 µM (active); in experiment [9], 0.0708 µM (active); in [10] it was 0.0378 µM (active); in [11], 0.0294 µM (active); in experiment [12], 0.0216 µM (active). In addition, the GI50 in experiment [13] was > 100 µM (inactive); in [14], 0.159 µM (active); in experiment [15], 0.0796 µM (active); in experiment [16] it was 0.0169 µM (active); in experiment [17], 0.0889 µM (active); in [18] it was 0.0508 µM (active). In addition, the results for the GI50 in experiment [19] and in experiment [20] were 0.0345 µM (active) and 1.7 µM (inactive), respectively.
Consider `CN(Cc1ccccc1)Cn1ccnc1`, for which the GI50 is > 100 µM (inactive) in [1]; > 100 µM (inactive) in [2]; 32.2 µM (inactive) in experiment [3]; > 100 µM (inactive) in experiment [4]; 39.4 µM (inactive) in experiment [5]; 25.7 µM (inactive) in [6]. For the same compound, the GI50 in experiment [7] is > 100 µM (inactive); in experiment [8] it was 51.4 µM (inactive); in experiment [9], > 100 µM (inactive); in [10], 40.3 µM (inactive); in experiment [11], 89.3 µM (inactive); in experiment [12] it was > 100 µM (inactive). Also, the GI50 in experiment [13] was > 100 µM (inactive); in [14], > 100 µM (inactive); in experiment [15] it was > 100 µM (inactive); in experiment [16] it was > 82.6 µM (inactive); in [17] it was > 100 µM (inactive); in experiment [18], > 100 µM (inactive). Also, the GI50 in experiment [19] was 26.2 µM (inactive); in experiment [20] it was 54.7 µM (inactive).
